Legend:
Test in all cases: NCI60 antitumor screening
Assay type in all cases: cell-based, human
MDA-MB-435 = tested on: MDA-MB-435
SW-620 = tested on: SW-620
SK-MEL-28 = conditions: Homo sapiens; 10 μM single dose; SK-MEL-28 (melanoma); read-out: growth inhibition percent (GI%)
A498 = tested on: A498
K-562 = tested on: K-562
HCT-15 = tested on: HCT-15
UO-31 = tested on: UO-31
NCI-H23 = tested on: NCI-H23
HOP-92 = tested on: HOP-92
IGROV1 = tested on: IGROV1
HL-60(TB) = tested on: HL-60(TB)
CAKI-1 = tested on: CAKI-1
RPMI-8226 = tested on: RPMI-8226
A549/ATCC = tested on: A549/ATCC
PC-3 = tested on: PC-3
SK-MEL-5 = tested on: SK-MEL-5
T-47D = tested on: T-47D
OVCAR-3 = tested on: OVCAR-3
UACC-257 = tested on: UACC-257
HCT-116 = tested on: HCT-116

## N#Cc1c(-c2ccc(F)cc2)nc(SCc2ccc(F)cc2)nc1N1CCNCC1 [4f, 2-((4-Fluorobenzyl)thio)-4-(4-fluorophenyl)-6-(piperazin-1-yl) pyrimidine-5-carbonitrile]
MDA-MB-435; Homo sapiens, 10 μM single dose, MDA-MB-435 (melanoma), read-out: growth inhibition percent (GI%)
  inhibition at 10 µM: > 100%
MDA-MB-435; five-dose
  TGI: 31.30 µM
SW-620; Homo sapiens, SW-620, five-dose
  GI50: 5.97 µM
SW-620; Homo sapiens, SW-620, five-dose, read-out: LC50 (the source's name)
  CC50: 48.7 µM
SW-620; Homo sapiens, 10 μM single dose, SW-620 (colon cancer), read-out: growth inhibition percent (GI%)
  inhibition at 10 µM: > 100%
SW-620; five-dose
  TGI: 19.30 µM
SK-MEL-28
  inhibition at 10 µM: > 100%
A498; Homo sapiens, A498, five-dose
  GI50: 15.3 µM
  LC50: 58.2 µM
A498; Homo sapiens, 10 μM single dose, A498 (renal cancer), read-out: growth inhibition percent (GI%)
  inhibition at 10 µM: < 10%
A498; five-dose
  TGI: 29.80 µM
K-562; 10 μM one-dose
  GI%: 99.28%
K-562; Homo sapiens, K562, five-dose
  GI50: 3.76 µM
K-562; Homo sapiens, K562, five-dose, read-out: LC50 (the source's name)
  CC50: > 100 µM
K-562; Homo sapiens, 10 μM single dose, (leukaemia), read-out: growth inhibition percent (GI%)
  inhibition at 10 µM: 99.3%
K-562; five-dose
  TGI: 17.80 µM
HCT-15; Homo sapiens, HCT-15, five-dose
  GI50: 11.7 µM
HCT-15; Homo sapiens, HCT-15, five-dose, read-out: LC50 (the source's name)
  CC50: 51.8 µM
HCT-15; Homo sapiens, 10 μM single dose, HCT-15 (colon cancer), read-out: growth inhibition percent (GI%)
  inhibition at 10 µM: > 100%
HCT-15; five-dose
  TGI: 24.60 µM
UO-31; 10 μM one-dose
  GI%: 91.74%
UO-31; Homo sapiens, 10 μM single dose, UO-31 (renal cancer), read-out: growth inhibition percent (GI%)
  inhibition at 10 µM: 91.7%
NCI-H23; Homo sapiens, NCI-H23, five-dose
  GI50: 16 µM
NCI-H23; Homo sapiens, NCI-H23, five-dose, read-out: LC50 (the source's name)
  CC50: 57.5 µM
NCI-H23; Homo sapiens, 10 μM single dose, NCI-H23 (non-small cell lung cancer), read-out: growth inhibition percent (GI%)
  inhibition at 10 µM: > 100%
NCI-H23; five-dose
  TGI: 30.40 µM
HOP-92; Homo sapiens, HOP-92, five-dose
  GI50: 7.64 µM
HOP-92; Homo sapiens, HOP-92, five-dose, read-out: LC50 (the source's name)
  CC50: 53.4 µM
HOP-92; Homo sapiens, 10 μM single dose, HOP-92 (non-small cell lung cancer), read-out: growth inhibition percent (GI%)
  inhibition at 10 µM: > 100%
HOP-92; five-dose
  TGI: 22.10 µM
IGROV1; Homo sapiens, IGROV-1, 10 μM single dose, IGROV1 (ovarian cancer), read-out: growth inhibition percent (GI%)
  inhibition at 10 µM: > 100%
IGROV1; Homo sapiens, IGROV-1, five-dose
  GI50: 15.6 µM
IGROV1; Homo sapiens, IGROV-1, five-dose, read-out: LC50 (the source's name)
  CC50: 56.8 µM
IGROV1; five-dose
  TGI: 29.80 µM
HL-60(TB); Homo sapiens, HL-60, five-dose
  GI50: 7.66 µM
HL-60(TB); Homo sapiens, HL-60, five-dose, read-out: LC50 (the source's name)
  CC50: 63.8 µM
HL-60(TB); Homo sapiens, 10 μM single dose, HL-60(TB) (leukaemia), read-out: growth inhibition percent (GI%)
  inhibition at 10 µM: > 100%
HL-60(TB); five-dose
  TGI: 24.00 µM
CAKI-1; Homo sapiens, CAKI-1, five-dose
  GI50: 15.3 µM
CAKI-1; Homo sapiens, CAKI-1, five-dose, read-out: LC50 (the source's name)
  CC50: 54.6 µM
CAKI-1; Homo sapiens, 10 μM single dose, CAKI-1 (renal cancer), read-out: growth inhibition percent (GI%)
  inhibition at 10 µM: > 100%
CAKI-1; five-dose
  TGI: 29.00 µM
RPMI-8226; Homo sapiens, RPMI-8226, five-dose
  GI50: 6.75 µM
RPMI-8226; Homo sapiens, RPMI-8226, five-dose, read-out: LC50 (the source's name)
  CC50: 74.4 µM
RPMI-8226; Homo sapiens, 10 μM single dose, RPMI-8226 (leukaemia), read-out: growth inhibition percent (GI%)
  inhibition at 10 µM: > 100%
RPMI-8226; five-dose
  TGI: 24.60 µM
A549/ATCC; Homo sapiens, A549, five-dose
  GI50: 11.5 µM
  LC50 (concentration killing 50% of cells): 54.2 µM
A549/ATCC; Homo sapiens, 10 μM single dose, A549/ATCC (non-small cell lung cancer), read-out: growth inhibition percent (GI%)
  inhibition at 10 µM: > 100%
A549/ATCC; five-dose
  TGI: 25.00 µM
PC-3; 10 μM one-dose
  GI%: 88.74%
PC-3; Homo sapiens, PC-3, five-dose
  GI50: 12.5 µM
PC-3; Homo sapiens, PC-3, five-dose, read-out: LC50 (the source's name)
  CC50: 61.3 µM
PC-3; Homo sapiens, 10 μM single dose, PC-3 (prostate cancer), read-out: growth inhibition percent (GI%)
  inhibition at 10 µM: 88.7%
PC-3; five-dose
  TGI: 27.70 µM
SK-MEL-5; Homo sapiens, SK-MEL-5, five-dose
  GI50: 16.8 µM
SK-MEL-5; Homo sapiens, SK-MEL-5, five-dose, read-out: LC50 (the source's name)
  CC50: 55.4 µM
SK-MEL-5; Homo sapiens, 10 μM single dose, SK-MEL-5 (melanoma), read-out: growth inhibition percent (GI%)
  inhibition at 10 µM: > 100%
SK-MEL-5; five-dose
  TGI: 30.50 µM
T-47D; Homo sapiens, T47D, 10 μM single dose, T-47D (breast cancer), read-out: growth inhibition percent (GI%)
  inhibition at 10 µM: > 100%
T-47D; Homo sapiens, T47D, five-dose
  GI50: 13.8 µM
T-47D; Homo sapiens, T47D, five-dose, read-out: LC50 (the source's name)
  CC50: 67.2 µM
T-47D; five-dose
  TGI: 30.40 µM
OVCAR-3; Homo sapiens, OVCAR-3, five-dose
  GI50: 15.5 µM
OVCAR-3; Homo sapiens, OVCAR-3, five-dose, read-out: LC50 (the source's name)
  CC50: 61.2 µM
OVCAR-3; Homo sapiens, 10 μM single dose, OVCAR-3 (ovarian cancer), read-out: growth inhibition percent (GI%)
  inhibition at 10 µM: > 100%
OVCAR-3; five-dose
  TGI: 30.80 µM
UACC-257; Homo sapiens, UACC-257, five-dose
  GI50: 14.8 µM
UACC-257; Homo sapiens, UACC-257, five-dose, read-out: LC50 (the source's name)
  CC50: 55.8 µM
UACC-257; Homo sapiens, 10 μM single dose, UACC-257 (melanoma), read-out: growth inhibition percent (GI%)
  inhibition at 10 µM: > 100%
UACC-257; five-dose
  TGI: 28.70 µM
HCT-116; Homo sapiens, HCT-116, five-dose
  GI50: 4.15 µM
HCT-116; Homo sapiens, HCT-116, five-dose, read-out: LC50 (the source's name)
  CC50: 42.8 µM
HCT-116; Homo sapiens, 10 μM single dose, HCT-116 (colon cancer), read-out: growth inhibition percent (GI%)
  inhibition at 10 µM: > 100%
HCT-116; five-dose
  TGI: 15.60 µM

Reference: paper PMC10620772, “Design, synthesis, and biological evaluation of new pyrimidine-5-carbonitrile derivatives as novel anti-cancer, dual EGFR^WT/COX-2 inhibitors with docking studies” (RSC Advances, 2023)
